Measured values as given in patent US20240350447A1, “DELIVERY METHODS FOR TREATING BRAIN AND CENTRAL NERVOUS SYSTEM DISEASES” (JENIVISION INC., priority 2021, published 2024).

Tests used:
[1] = JV-DE1 distribution after single periorbital skin administration; assay type: in vivo, Bama minipigs
Protocol: In this example, 158.45 μg of 4,5-dihydro-N-[4-[[4-(1-methylethoxy) phenyl]methyl] phenyl]-1H-imadazol-2-amine (JV-DE1) was applied to the periorbital skin of a right eye of a Bama minipig. […] 1.37 ng/g of tissue and 1.35 ng/g of tissue of JV-DE1 was measured in the left and right halves of the brain, respectively. The average amount of JV-DE1 present in the brain 3 hours post-dosage was 1.36 ng/g.
Given that the average Bama pig brain weighs around 60 g, the amount of JV-DE1 delivered to the brain can be estimated to be […]. Therefore, 0.051% of the 158.45 μg of JV-DE1 administered to the periorbital skin was delivered to the brain, […] than the deliverability of DHA via NIODP. As a comparison, only about 0.025% of DHA that is orally administered is delivered to the brain or CNS.

[2] = Baseline endogenous levels of DHA, DHA-EE and JV-DE1; assay type: in vivo; details: undosed Bama minipigs
Protocol: Endogenous levels were measured in the plasma, cerebrospinal fluid, ocular tissues (retina, optic nerve, ocular muscles), and brain. The endogenous levels DHA are not attributable to NIODP administration of DHA, DHA-EE, or JV-DE1. The baseline data collected in Table 4 was taken from the same lot of pigs, from the same vendor, as the information collected in Tables 5-7.

[3] = Biodistribution of JV-DE1 after periorbital skin (NIODP) application to one eye; assay type: in vivo, Cynomolgus monkeys; details: 165.4 μg to OD via NIODP; for OS/OD retina ratio of JV-DE1: undosed/dosed retina
Protocol: An experiment was performed to determine the biodisposition of 4,5-dihydro-N-[4-[[4-(1-methylethoxy) phenyl]methyl] phenyl]-1H-imadazol-2-amine (JV-DE1) following topical application to the periorbital skin that surrounds the anterior portion of the globe was performed.
165.4 μg of JV-DE1, a synthesized chemical compound, was applied to the right eye (OD) of Cynomolgus monkeys via NIODP. The monkeys were restrained from rubbing their eyes for 2 hours post dose and closely monitored by experimenter(s) to prevent cross-contamination of the untreated eye, yet JV-DE1 was quickly found in the undosed upper eyelid (733.4 ng/g), retina (5.2 ng/g) and Vitreous humor (1.03 ng/mL) as early as 0.5-hour post dose. Throughout the 3, 6, and 24-hour post dose points, low levels of JV-DE1 was detected in the retina at 5.5 ˜ 45.5 ng/g of the dosed eye, and 1.4 ˜ 6.3 ng/g of the undosed eye. The ratio of JV-DE1 in undoseD retina vs. the dosed retina was below 25.5% at all post dose time points tested.

[4] = JV-DE1 in cornea and retina after single eye drop administration; assay type: in vivo, New Zealand Rabbits; details: 120 μg/eye eye drops to the right eye
From the text: NIODP may be more efficient than topical eye drops for corneal delivery to treat corneal disorders, such as dry disease. […] Accordingly, NIODP may be used to deliver other compounds (such as DHA) to the cornea to treat corneal diseases, such as dry eye.

[5] = 3 h, JV-DE1 158.45 μg to periorbital skin of right eye

Drug Concentration in Plasma ([1]; 0 h, JV-DE1 158.45 μg to periorbital skin of right eye): BLQ | Drug Concentration in Plasma ([1]; 1 h, JV-DE1 158.45 μg to periorbital skin of right eye): BLQ | Percentage of administered dose delivered to the brain ([1]; 3 h, JV-DE1 158.45 μg periorbital, whole brain estimate): 0.051% | % of administered dose: Cerebrospinal fluid [1, 5]: 0% | % of administered dose: brain-left [1, 5]: 0.0518% | % of administered dose: brain-right [1, 5]: 0.0513% | % of administered dose: inferior rectus muscle-left [1, 5]: 0.0061% | % of administered dose: inferior rectus muscle-right [1, 5]: 0.0170% | % of administered dose: lateral rectus muscle-left [1, 5]: 0.0063% | % of administered dose: lateral rectus muscle-right [1, 5]: 0.0175% | % of administered dose: medial rectus muscle-left [1, 5]: 0.0071% | % of administered dose: medial rectus muscle-right [1, 5]: 0.0260% | % of administered dose: optic nerve-left [1, 5]: 0.0006% | % of administered dose: optic nerve-right [1, 5]: 0.0047% | % of administered dose: retina-left [1, 5]: 0.0002% | % of administered dose: retina-right [1, 5]: 0.0003% | % of administered dose: superior rectus muscle-left [1, 5]: 0.0140% | % of administered dose: superior rectus muscle-right [1, 5]: 0.0237% | Average JV-DE1 present in the brain [1, 5]: 1.36 ng/g | Drug Concentration in Plasma [1, 5]: BLQ | Drug Concentration in Tissue: Cerebrospinal fluid [1, 5]: BLQ | Drug Concentration in Tissue: brain-left [1, 5]: 1.37 ng/g | Drug Concentration in Tissue: brain-right [1, 5]: 1.35 ng/g | Drug Concentration in Tissue: inferior rectus muscle-left [1, 5]: 57.27 ng/g | Drug Concentration in Tissue: inferior rectus muscle-right [1, 5]: 58.71 ng/g | Drug Concentration in Tissue: lateral rectus muscle-left [1, 5]: 53.65 ng/g | Drug Concentration in Tissue: lateral rectus muscle-right [1, 5]: 43.50 ng/g | Drug Concentration in Tissue: medial rectus muscle-left [1, 5]: 43.67 ng/g | Drug Concentration in Tissue: medial rectus muscle-right [1, 5]: 65.54 ng/g | Drug Concentration in Tissue: optic nerve-left [1, 5]: 11.94 ng/g | Drug Concentration in Tissue: optic nerve-right [1, 5]: 33.63 ng/g | Drug Concentration in Tissue: retina-left [1, 5]: 2.30 ng/g | Drug Concentration in Tissue: retina-right [1, 5]: 2.70 ng/g | Drug Concentration in Tissue: superior rectus muscle-left [1, 5]: 85.83 ng/g | Drug Concentration in Tissue: superior rectus muscle-right [1, 5]: 88.37 ng/g | Amount of JV-DE1 delivered to the brain (estimated) ([1]; 3 h, brain weight around 60 g, JV-DE1 158.45 μg periorbital): 80.6 ng | Baseline endogenous concentration in brain [2]: BLQ | Baseline endogenous concentration in cerebrospinal fluid [2]: BLQ | Baseline endogenous concentration in eye tissue homogenate including (Retina, optic nerve, ocular muscle) [2]: BLQ | Baseline endogenous concentration in plasma [2]: BLQ | JV-DE1 in plasma ([3]; 0 h post dose): BLQ | JV-DE1 in plasma ([3]; 0.5 h post dose): 0.131 ng/mL | JV-DE1 in plasma ([3]; 3 h post dose): 0.21 ng/mL | JV-DE1 in plasma ([3]; 6 h post dose): 0.26 ng/mL | JV-DE1 in plasma ([3]; 24 h post dose): BLQ | JV-DE1 in cornea ([3]; OD (dosed eye), 0.5 h): 9299.3 ng/g | JV-DE1 in retina ([3]; OD (dosed eye), 0.5 h): 39.6 ng/g | JV-DE1 in upper eyelid ([3]; OD (dosed eye), 0.5 h): 26535.4 ng/g | JV-DE1 in vitreous humor ([3]; OD (dosed eye), 0.5 h): 15.2 ng/mL | Retina/Upper eyelid ratio of JV-DE1 ([3]; OD (dosed eye), 0.5 h): 0.1% | JV-DE1 in cornea ([3]; OD (dosed eye), 3 h): 16688.7 ng/g | JV-DE1 in retina ([3]; OD (dosed eye), 3 h): 27.9 ng/g | JV-DE1 in upper eyelid ([3]; OD (dosed eye), 3 h): 32454.7 ng/g | JV-DE1 in vitreous humor ([3]; OD (dosed eye), 3 h): 7.79 ng/mL | Retina/Upper eyelid ratio of JV-DE1 ([3]; OD (dosed eye), 3 h): 0.1% | JV-DE1 in cornea ([3]; OD (dosed eye), 6 h): 23929.5 ng/g | JV-DE1 in retina ([3]; OD (dosed eye), 6 h): 45.5 ng/g | JV-DE1 in upper eyelid ([3]; OD (dosed eye), 6 h): 7945.6 ng/g | JV-DE1 in vitreous humor ([3]; OD (dosed eye), 6 h): 3.9 ng/mL | Retina/Upper eyelid ratio of JV-DE1 ([3]; OD (dosed eye), 6 h): 0.6% | JV-DE1 in cornea ([3]; OD (dosed eye), 24 h): 1621.3 ng/g | JV-DE1 in retina ([3]; OD (dosed eye), 24 h): 5.5 ng/g | JV-DE1 in upper eyelid ([3]; OD (dosed eye), 24 h): 11597.8 ng/g | JV-DE1 in vitreous humor ([3]; OD (dosed eye), 24 h): 18.97 ng/mL | Retina/Upper eyelid ratio of JV-DE1 ([3]; OD (dosed eye), 24 h): 0.0% | JV-DE1 in cornea ([3]; OS (undosed eye), 0.5 h): 0 ng/g | JV-DE1 in retina ([3]; OS (undosed eye), 0.5 h): 5.2 ng/g | JV-DE1 in upper eyelid ([3]; OS (undosed eye), 0.5 h): 733.4 ng/g | JV-DE1 in vitreous humor ([3]; OS (undosed eye), 0.5 h): 1.03 ng/mL | Retina/Upper eyelid ratio of JV-DE1 ([3]; OS (undosed eye), 0.5 h): 0.7% | JV-DE1 in cornea ([3]; OS (undosed eye), 3 h): 0 ng/g | JV-DE1 in retina ([3]; OS (undosed eye), 3 h): 6.3 ng/g | JV-DE1 in upper eyelid ([3]; OS (undosed eye), 3 h): 1637 ng/g | JV-DE1 in vitreous humor ([3]; OS (undosed eye), 3 h): 1.85 ng/mL | Retina/Upper eyelid ratio of JV-DE1 ([3]; OS (undosed eye), 3 h): 0.4% | JV-DE1 in cornea ([3]; OS (undosed eye), 6 h): 0 ng/g | JV-DE1 in retina ([3]; OS (undosed eye), 6 h): 4.8 ng/g | JV-DE1 in upper eyelid ([3]; OS (undosed eye), 6 h): 378.2 ng/g | JV-DE1 in vitreous humor ([3]; OS (undosed eye), 6 h): 0.57 ng/mL | Retina/Upper eyelid ratio of JV-DE1 ([3]; OS (undosed eye), 6 h): 1.3% | JV-DE1 in cornea ([3]; OS (undosed eye), 24 h): 0 ng/g | JV-DE1 in retina ([3]; OS (undosed eye), 24 h): 1.4 ng/g | JV-DE1 in upper eyelid ([3]; OS (undosed eye), 24 h): 46.3 ng/g | JV-DE1 in vitreous humor ([3]; OS (undosed eye), 24 h): 0 ng/mL | Retina/Upper eyelid ratio of JV-DE1 ([3]; OS (undosed eye), 24 h): 3.0% | Ratio of JV-DE1 in undosed retina vs. dosed retina ([3]; all post dose time points tested): below 25.5% | OS/OD retina ratio of JV-DE1 ([3]; 0.5 h): 13.1% | OS/OD retina ratio of JV-DE1 ([3]; 3 h): 22.6% | OS/OD retina ratio of JV-DE1 ([3]; 6 h): 10.5% | OS/OD retina ratio of JV-DE1 ([3]; 24 h): 25.5% | JV-DE1 in cornea ([4]; OD (dosed eye), 0.5 h): 12124.85 ng/g | JV-DE1 in retina ([4]; OD (dosed eye), 0.5 h): 92.03 ng/g | JV-DE1 in cornea ([4]; OD (dosed eye), 2 h): 5952.6 ng/g | JV-DE1 in retina ([4]; OD (dosed eye), 2 h): 49.13 ng/g | JV-DE1 in cornea ([4]; OD (dosed eye), 6 h): 5125.52 ng/g | JV-DE1 in retina ([4]; OD (dosed eye), 6 h): 58.87 ng/g | JV-DE1 in cornea ([4]; OD (dosed eye), 24 h): 542.19 ng/g | JV-DE1 in retina ([4]; OD (dosed eye), 24 h): 6.82 ng/g | JV-DE1 in cornea ([4]; OS (undosed eye), 0.5 h): 78.35 ng/g | JV-DE1 in retina ([4]; OS (undosed eye), 0.5 h): 7.35 ng/g | JV-DE1 in cornea ([4]; OS (undosed eye), 2 h): 28.92 ng/g | JV-DE1 in retina ([4]; OS (undosed eye), 2 h): 3.38 ng/g | JV-DE1 in cornea ([4]; OS (undosed eye), 6 h): 67.82 ng/g | JV-DE1 in retina ([4]; OS (undosed eye), 6 h): 1.42 ng/g | JV-DE1 in cornea ([4]; OS (undosed eye), 24 h): 11.03 ng/g | JV-DE1 in retina ([4]; OS (undosed eye), 24 h): BLQ
Compound: CC(C)Oc1ccc(Cc2ccc(NC3=NCCN3)cc2)cc1 [JV-DE1, 4,5-dihydro-N-[4-[[4-(1-methylethoxy)phenyl]methyl]phenyl]-1H-imadazol-2-amine]
